Columns and labels:
[1] = system: Myzus persicae (green peach aphid); assay: Example B1: activity against Myzus persicae, sprayed sunflower leaf discs (feeding/residual contact, preventive); settings: foliar, 144 h, read-out: activity (mortality)
[2] = system: Myzus persicae (green peach aphid); assay: Example B13: drench activity against Myzus persicae, pea seedlings in field soil; settings: 168 h, read-out: drench activity (mortality)
[3] = system: Aphis Craccivora (cowpea aphid); assay: Example B11: translaminar activity against Aphis craccivora on French bean leaves; format: in vivo; settings: 120 h, upper leaf side painted, aphids on lower side, 5 days
Procedure: Translaminar Activity Against Aphis Craccivora (Cowpea Aphid)
French bean leaves (Phaseolus vulgaris) are infested with about 20 mixed age individuals on the lower leaf side using clip cages. 1 day after the infestation, the upper side of the leaves is treated with the test solution by painting. 5 days later, samples are checked for mortality.

[4] = system: Aphis Craccivora (cowpea aphid); assay: Example B9: activity against Aphis craccivora, sprayed pea seedlings (contact/feeding); format: in vivo; settings: 144 h, infested pea seedlings sprayed, 6 days
Excerpt: (§1) Activity Against Aphis Craccivora (Cowpea Aphid)
(Mixed Population, Contact/Feeding)
6 days after treatment, samples are checked for mortality.

[5] = system: Myzus persicae (green peach aphid); assay: Example B2: activity against Myzus persicae, pea seedling roots in test solution (systemic/feeding, curative); settings: 144 h, read-out: activity (mortality)
[6] = system: Myzus persicae (green peach aphid); assay: Example B17: activity against Myzus persicae on sprayed pepper plants (feeding/residual contact); format: in vivo; settings: 144 h, infested pepper plants sprayed, 6 days
[7] = system: Aphis Craccivora (cowpea aphid); assay: Example B10: activity against Aphis craccivora, pea seedling roots in test solution (systemic/feeding); format: in vivo; settings: 144 h, roots of infested pea seedlings in test solution, 6 days
Excerpt: as §1
(Mixed Population, Systemic/Feeding)

[8] = system: Nilaparvata lugens (brown rice planthopper); assay: Example B8: activity against Nilaparvata lugens, sprayed rice seedlings (larvicide, feeding/contact); settings: in Oryza sativa, read-out: activity (mortality, growth regulation, effects on F1 generation)
[9] = system: Frankliniella occidentalis (western flower thrips); assay: Example B6: activity against Frankliniella occidentalis, bean leaf discs or bean plants; format: in vivo; settings: foliar, 6 days (leaf discs) or 14 days (plants) after infestation, read-out: activity (reduction of treated population)
Procedure: Activity Against Frankliniella occidentalis (Western Flower Thrips)
Bean leaf discs on agar in petri dishes or bean plants in a spray chamber are treated with diluted test solutions. After drying leaf discs are cut and placed in plastic cups on the surface of an agar layer and infested with mixed population. 6 days (leaf discs) or 14 days (plants) after the infestation, samples are checked for reduction of treated population and compared to the non treated population.

[10] = system: Tetranychus urticae (two-spotted spider mite); assay: Example B4: activity against Tetranychus urticae, sprayed bean leaf discs (feeding/residual contact, preventive); settings: foliar, 192 h, read-out: activity (egg, larval and adult mortality)
[11] = system: Bemisia tabaci (tobacco white fly); assay: Example B7: activity against Bemisia tabaci, sprayed bean plants (larvicide, contact/feeding); format: in vivo; settings: 504 h, bean plants with N-2 nymphs sprayed, three weeks, read-out: activity (efficacy, number of emerged adults)
Procedure: Activity Against Bemisia tabaci (Tobacco White Fly)
(Larvicide, Contact/Feeding)
Bean plants are infested with 20-30 adults that were removed after a 4 day egg-laying period. After another 7 days, bean plants with hatched nymphs (N-2) are treated (2 replicates) with the test solutions in a spray chamber. Three weeks later, samples are checked for number of emerged adults. Efficacy was calculated by comparing number of emerged adults in treated and non treated samples.

[12] = system: Thrips tabaci (onion thrips); assay: Example B3: activity against Thrips tabaci, sprayed sunflower leaf discs (feeding/residual contact, preventive); format: in vivo; settings: foliar, 144 h, mixed population, 6 days
Excerpt: Activity Against Thrips tabaci (Onion Thrips)
(Mixed Population, Feeding/Residual Contact Activity, Preventive)

| Structure (SMILES) | mortality at 400 ppm [1] | mortality at 25 ppm [2] | mortality at 400 ppm [3] | mortality at 400 ppm [4] | mortality at 400 ppm [5] | mortality at 200 ppm [6] | mortality at 400 ppm [7] | mortality at 400 ppm [8] | pest or weed control at 400 ppm [9] | mortality at 400 ppm [10] | pest or weed control at 200 ppm [11] | mortality at 400 ppm [12] |
| --- | --- | --- | --- | --- | --- | --- | --- | --- | --- | --- | --- | --- |
| CCOC(=O)OC1=C(c2cc(C)ccc2C)C(=O)N(OC)C12CCN(OC)CC2 [P1.1] | > 80% | > 80% | > 80% | > 80% | > 80% | ≥ 80% | > 80% | > 80% | – | – | – | – |
| CCOC(=O)OC1=C(c2cc(C)ccc2C)C(=O)N(OCCOC)C12CCN(OC)CC2 [P1.3] | > 80% | > 80% | > 80% | > 80% | > 80% | ≥ 80% | > 80% | > 80% | – | – | – | – |
| CCOC(=O)OC1=C(c2c(C)cc(C)cc2C)C(=O)N(OC2CCCCO2)C12CCN(OC)CC2 (stereo not drawn) [P1.10] | > 80% | > 80% | > 80% | – | > 80% | ≥ 80% | > 80% | > 80% | > 80% | > 80% | > 80% | – |
| CCOC(=O)OC1=C(c2cc(C)ccc2C)C(=O)N(O)C12CCN(OC)CC2 [P1.12] | > 80% | – | – | – | > 80% | – | – | > 80% | – | – | – | > 80% |
| CCOC(=O)OC1=C(c2c(C)cc(C)cc2C)C(=O)N(OC(C)C)C12CCN(OC)CC2 [P1.14] | – | – | > 80% | – | > 80% | ≥ 80% | – | – | > 80% | – | – | – |
| CCOC(=O)OC1=C(c2c(C)cc(C)cc2C)C(=O)N(OCC2CC2)C12CCN(OC)CC2 [P1.18] | > 80% | > 80% | > 80% | – | > 80% | ≥ 80% | – | > 80% | > 80% | > 80% | > 80% | – |
| CCOC(=O)OC1=C(c2c(C)cc(C)cc2C)C(=O)N(OCC2CCCCO2)C12CCN(OC)CC2 (stereo not drawn) [P1.26] | > 80% | > 80% | > 80% | > 80% | > 80% | ≥ 80% | > 80% | > 80% | – | > 80% | – | – |
| CCOC(=O)OC1=C(c2c(C)cc(C)cc2C)C(=O)N(OCOCCOC)C12CCN(OC)CC2 [P1.27] | > 80% | > 80% | > 80% | > 80% | > 80% | ≥ 80% | > 80% | > 80% | > 80% | > 80% | – | – |
| CCOC(=O)OC1=C(c2c(C)cc(C)cc2C)C(=O)N(OC2CCC2)C12CCN(OC)CC2 [P1.45] | > 80% | – | > 80% | – | > 80% | ≥ 80% | – | > 80% | > 80% | > 80% | – | – |
| CCOC(=O)OC1=C(c2ccc(C)cc2C)C(=O)N(OC)C12CCN(OC)CC2 [P1.48] | > 80% | > 80% | > 80% | > 80% | > 80% | ≥ 80% | – | > 80% | – | > 80% | > 80% | – |
| CCOCON1C(=O)C(c2ccc(C)cc2C)=C(OC(=O)OCC)C12CCN(OC)CC2 [P1.49] | > 80% | > 80% | > 80% | – | > 80% | – | – | > 80% | – | > 80% | – | > 80% |
| CCOC(=O)OC1=C(c2c(C)ccc(C)c2Cl)C(=O)N(OCCOC)C12CCN(OC)CC2 [P1.60] | > 80% | > 80% | > 80% | > 80% | > 80% | – | > 80% | > 80% | > 80% | > 80% | – | – |
| CCOC(=O)OC1=C(c2c(C)cc(C)cc2C)C(=O)N(OCC2CCOCC2)C12CCN(OC)CC2 [P1.82] | > 80% | > 80% | > 80% | > 80% | > 80% | ≥ 80% | > 80% | > 80% | – | > 80% | > 80% | – |
| CCOCON1C(=O)C(c2c(C)cc(C)cc2C)=C(O)C12CCN(OC)CC2 [P2.10] | > 80% | – | > 80% | – | > 80% | ≥ 80% | > 80% | > 80% | > 80% | – | – | > 80% |
| CON1CCC2(CC1)C(O)=C(c1c(C)cc(C)cc1C)C(=O)N2OC(C)C [P2.11] | – | > 80% | – | – | > 80% | ≥ 80% | – | – | > 80% | > 80% | – | – |
| C=CCON1C(=O)C(c2c(C)cc(C)cc2C)=C(O)C12CCN(OC)CC2 [P2.12] | > 80% | > 80% | > 80% | – | > 80% | ≥ 80% | – | – | > 80% | > 80% | > 80% | – |
| COCCOCON1C(=O)C(c2c(C)cc(C)cc2C)=C(O)C12CCN(OC)CC2 [P2.24] | > 80% | > 80% | > 80% | > 80% | > 80% | ≥ 80% | > 80% | > 80% | – | > 80% | – | – |
| CON1CCC2(CC1)C(O)=C(c1c(C)cc(C)cc1C)C(=O)N2OC1CCC1 [P2.30] | > 80% | > 80% | > 80% | – | > 80% | ≥ 80% | – | – | > 80% | > 80% | – | – |
| COCON1C(=O)C(c2c(C)cc(C)cc2Cl)=C(O)C12CCN(OC)CC2 [P2.34] | > 80% | > 80% | > 80% | > 80% | > 80% | – | > 80% | > 80% | – | > 80% | – | > 80% |
| COCON1C(=O)C(c2c(C)ccc(C)c2C)=C(O)C12CCN(OC)CC2 [P2.54] | > 80% | > 80% | > 80% | – | > 80% | ≥ 80% | > 80% | – | > 80% | – | – | – |
| CON1CCC2(CC1)C(O)=C(c1c(C)cc(C)cc1Cl)C(=O)N2OC [P2.55] | > 80% | > 80% | > 80% | – | > 80% | – | > 80% | > 80% | > 80% | > 80% | – | – |
| CON1CCC2(CC1)C(O)=C(c1c(C)cc(C)cc1Br)C(=O)N2OC [P2.56] | > 80% | > 80% | > 80% | – | > 80% | – | > 80% | – | > 80% | > 80% | – | – |
| CON1CCC2(CC1)C(O)=C(c1c(C)cc(C)cc1C)C(=O)N2OCC1CCOC1 (stereo not drawn) [P2.67] | > 80% | – | – | – | > 80% | ≥ 80% | – | – | – | > 80% | – | > 80% |

— patent US20110224079A1, “SPIROHETEROCYCLIC N-OXYAMIDES AS PESTICIDES” (SYNGENTA CROP PROTECTION LLC, priority 2008, published 2011)
